According to article PMC8909036 (Cells, 2022):

Tests used:
ΔN-HAB1 = molecular target: T1, ΔN-HAB1 (Arabidopsis thaliana, UniProt Q9CAJ0); test: phosphatase turnover, […] nm, […] min; type: biochemical; settings: 25 mM pNPP, 2 mM MnCl2, 25 mM Tris HCl pH 7.5
T1 sequence (Q9CAJ0 172-511 limits assumed): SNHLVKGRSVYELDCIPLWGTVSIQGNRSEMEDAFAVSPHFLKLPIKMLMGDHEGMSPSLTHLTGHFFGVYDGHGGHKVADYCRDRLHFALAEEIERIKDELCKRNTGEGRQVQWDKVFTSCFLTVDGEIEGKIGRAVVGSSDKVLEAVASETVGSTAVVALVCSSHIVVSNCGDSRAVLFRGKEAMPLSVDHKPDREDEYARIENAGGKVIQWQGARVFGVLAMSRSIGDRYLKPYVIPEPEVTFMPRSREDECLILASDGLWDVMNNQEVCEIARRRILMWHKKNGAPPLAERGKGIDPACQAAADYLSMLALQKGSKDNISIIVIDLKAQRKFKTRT

NbPYL1b = molecular target: T2, NbPYL1b (Nicotiana benthamiana, UniProt Z9Z2X8O5T5); test: ligand-dependent inhibition of PP2C HAB1 by receptor, pNPP, […] nm; type: biochemical; settings: 0.5 μM ΔN-HAB1, 1 or 2 μM NbPYL1b, 25 mM pNPP, 2 mM MnCl2, 25 mM Tris HCl pH 7.5; agonist, IC50 read on HAB1 activity
T2 construct: full ORF amplified from Nb genomic DNA (CDS 678 nt, 225 residues by count) in pETM11, His-tagged, E. coli BL21(DE3), Ni-NTA; dimer in gel filtration (apo); assayed with N-terminally truncated HAB1 (ΔN-HAB1); with Protein phosphatase 2C 16
T2 sequence (Z9Z2X8O5T5 1-225): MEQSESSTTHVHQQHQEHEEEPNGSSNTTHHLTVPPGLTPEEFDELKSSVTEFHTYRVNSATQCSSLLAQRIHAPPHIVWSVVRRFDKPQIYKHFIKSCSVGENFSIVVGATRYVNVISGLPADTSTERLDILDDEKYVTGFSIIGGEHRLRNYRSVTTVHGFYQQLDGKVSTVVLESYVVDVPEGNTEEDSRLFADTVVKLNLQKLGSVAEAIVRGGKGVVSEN
T2 sequence (Q9CAJ0 172-511 partner limits assumed): T1 sequence (Q9CAJ0 172-511 limits assumed)

IC50 (NbPYL1b) [nM]	Compound	phosphatase turnover, 405 nm, 30 min (ΔN-HAB1)
–	O=[N+]([O-])c1ccc(OP(=O)(O)O)cc1 [pNPP]	Phosphatase activity was measured using p-nitrophenyl phosphate (pNPP) as a substrate
126	Cc1ccc(CS(=O)(=O)Nc2ccc(C#N)c(C3CC3)c2)cc1 [CB]	–
